Legend:
[1] = under the conditions investigated in WO 99/18097; cited from earlier work
[2] = Moisture sorption isotherm (SPS-11 moisture sorption analyzer); format: physicochemical
Protocol: The moisture sorption isotherm was recorded with a SPS-11 moisture sorption analyzer (MD Mess-technik, Ulm, D). The measurement cycle was started at 0% relative humidity (RH), increased in 10% steps up to 90% RH and in a 5% step up to 95% RH. The equilibrium condition for each step was set to a constant mass±0.003% over 49 min. The temperature was 25±0.1° C.
At ambient conditions form II-S contains approximately 1 mol water (monohydrate). […] The maximum water content peaks at 5.2% at 90% relative humidity, which corresponds to a water mol ratio of 2.0 (FIG. 4).

Row | water content at ambient conditions ([2]; ambient conditions, per mole posaconazole (monohydrate)) | water mol ratio at maximum water content ([2]; at 90% relative humidity, 25 °C, corresponds to the 5.2% water content) | step of water uptake/loss ([2]; between 0 and 10% relative humidity) | maximum water content ([2]; moisture sorption isotherm, at 90% relative humidity, 25 °C) [%] | Structure (SMILES) | stability of the crystalline form [1]
1 |  |  |  |  | CC[C@@H]([C@H](C)O)n1ncn(-c2ccc(N3CCN(c4ccc(OC[C@@H]5CO[C@@](Cn6cncn6)(c6ccc(F)cc6F)C5)cc4)CC3)cc2)c1=O [form II, posaconazole] | unstable
2 | approximately 1 mol water | 2.0 | over 0.5 mol water | 5.2 | CC[C@@H]([C@H](C)O)n1ncn(-c2ccc(N3CCN(c4ccc(OC[C@@H]5CO[C@@](Cn6cncn6)(c6ccc(F)cc6F)C5)cc4)CC3)cc2)c1=O [form II-S, 2,5-anhydro-1,3,4-trideoxy-2-C-(2,4-difluorophenyl)-4-[[4-[4-[4-[1-[(1S,2S)-1-ethyl-2-hydroxypropyl]-1,5-dihydro-5-oxo-4H-1,2,4-triazol-4-yl]phenyl]-1-piperazinyl]phenoxy]methyl]-1-(1H-1,2,4-triazol-1-yl)-D-threo-pentitol] | 
